Assay results taken from US10206937B2, “Boronic acid derivatives and therapeutic uses thereof” (Qpex Biopharma, Inc., priority 2014, dated 2019).

How the values were obtained:
[1] = target: T1, NDM-1 (Klebsiella pneumoniae, UniProt C7C422); test: biochemical; conditions: cleavage of imipenem (100 uM) by NDM-1; read-out: Ki, Imipenem
[2] = target: T1, NDM-1; test: Inhibition of purified class B carbapenemase NDM-1 (Ki, imipenem substrate); type: biochemical; conditions: NDM-1, substrate imipenem; read-out: Ki NDM-1, Imipenem
[3] = target: T2, purified class A, C and D enzymes (UniProt P0AD64, L31Q/G234S/E235K, species not given); type: biochemical; conditions: read-out: Ki (SHV-12, NCF); purified SHV-12; nitrocefin reporter substrate
T2 construct: Ki (SHV-12, NCF); other: purified SHV-12; nitrocefin reporter substrate
T2 sequence (P0AD64 1-286 L31Q/G234S/E235K): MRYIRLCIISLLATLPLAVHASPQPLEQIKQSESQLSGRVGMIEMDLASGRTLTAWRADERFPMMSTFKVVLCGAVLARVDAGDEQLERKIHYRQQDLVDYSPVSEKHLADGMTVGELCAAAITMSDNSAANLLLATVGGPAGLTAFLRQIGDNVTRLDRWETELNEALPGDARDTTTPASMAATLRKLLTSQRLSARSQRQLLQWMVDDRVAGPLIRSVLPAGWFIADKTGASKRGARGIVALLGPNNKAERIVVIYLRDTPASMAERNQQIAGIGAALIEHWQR

[4] = target: T3, purified class A, C and D enzymes (UniProt Q9F663); type: biochemical; conditions: read-out: Ki (KPC-2, NCF); purified KPC-2; nitrocefin reporter substrate
T3 construct: rows headed: Ki (KPC-2, NCF); other: purified KPC-2; nitrocefin reporter substrate

[5] = target: purified class A, C and D enzymes (Enterobacter cloacae, UniProt P05364); type: biochemical; conditions: purified P99/AmpC of ECL; nitrocefin reporter substrate
[6] = target: purified class A, C and D enzymes (Escherichia coli, UniProt Q9L5C7); type: biochemical; conditions: purified CTX-M-14; nitrocefin reporter substrate
[7] = target: T4, purified class A, C and D enzymes (UniProt Q6XEC0); type: biochemical; conditions: read-out: Ki (OXA-48, NCF); purified OXA-48; nitrocefin reporter substrate
T4 construct: rows headed: Ki (OXA-48, NCF); other: purified OXA-48; nitrocefin reporter substrate

[8] = target: T5, VIM-1 (Pseudomonas aeruginosa, UniProt A0A0F7KYQ8); test: biochemical; conditions: cleavage of nitrocefin (200 uM) by VIM-1 supernatant
T5 construct: made in house; host or cells: ECM6711 strain carrying pUCP24-VIM-1 plasmid; culture supernatant used unpurified

purified class A, C and D enzymes (Enterobacter cloacae, UniProt P05364), sequence (P05364 21-381): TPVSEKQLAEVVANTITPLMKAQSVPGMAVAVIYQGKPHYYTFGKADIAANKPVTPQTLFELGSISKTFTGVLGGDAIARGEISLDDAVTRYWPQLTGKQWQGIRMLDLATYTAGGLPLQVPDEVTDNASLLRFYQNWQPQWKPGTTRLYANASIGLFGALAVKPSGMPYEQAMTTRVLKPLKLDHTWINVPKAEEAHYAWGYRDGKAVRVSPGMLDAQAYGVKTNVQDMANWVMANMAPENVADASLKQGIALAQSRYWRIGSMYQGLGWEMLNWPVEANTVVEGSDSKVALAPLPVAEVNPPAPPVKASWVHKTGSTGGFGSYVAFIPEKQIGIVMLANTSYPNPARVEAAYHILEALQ
purified class A, C and D enzymes (Escherichia coli, UniProt Q9L5C7), sequence (Q9L5C7 entry or part of it): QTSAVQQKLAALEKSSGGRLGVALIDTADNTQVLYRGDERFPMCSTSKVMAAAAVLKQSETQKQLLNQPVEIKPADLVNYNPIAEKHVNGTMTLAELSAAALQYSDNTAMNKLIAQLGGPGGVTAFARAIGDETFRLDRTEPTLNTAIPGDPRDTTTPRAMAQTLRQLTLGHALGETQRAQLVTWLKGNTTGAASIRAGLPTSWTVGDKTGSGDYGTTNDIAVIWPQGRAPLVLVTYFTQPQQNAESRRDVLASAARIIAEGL
T1 sequence (C7C422 29-270, looked up, species assumed): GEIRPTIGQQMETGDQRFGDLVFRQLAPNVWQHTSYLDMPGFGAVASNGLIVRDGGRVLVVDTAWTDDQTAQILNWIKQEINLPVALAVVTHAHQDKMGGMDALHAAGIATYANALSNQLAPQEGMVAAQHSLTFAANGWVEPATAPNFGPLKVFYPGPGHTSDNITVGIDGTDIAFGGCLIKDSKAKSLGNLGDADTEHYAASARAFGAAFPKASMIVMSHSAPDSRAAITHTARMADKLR

Structure (SMILES)	Ki [1] [nM]	Ki [2] [nM]	Ki [3] [nM]	Ki [4] [nM]	Ki (P99/AmpC of ECL, NCF) [5]	Ki (CTX-M-14, NCF) [6]	Ki [7] [nM]	IC50 [8] [nM]
Nc1nnc(S[C@H]2Cc3ccc(O)c(C(=O)O)c3OB2O)s1 [Compound 44, (R)-3-(5-amino-1,3,4-thiadiazol-2-ylthio)-2,7-dihydroxy-3,4-dihydro-2H-benzo[e][1,2]oxaborinine-8-carboxylic acid]	< 10	< 10	< 100	< 100	X (Less than 0.1 μM)	X (Less than 0.1 μM)	< 100	< 1000
O=C(O)c1c(F)ccc2c1OB(O)[C@@H](Sc1nccs1)C2 [Compound 45, (R)-7-fluoro-2-hydroxy-3-(thiazol-2-ylthio)-3,4-dihydro-2H-benzo[e][1,2]oxaborinine-8-carboxylic acid]	10 to 100	10 to 100	< 100	100 to 1000	Z (Greater than 1 μM)	X (Less than 0.1 μM)	< 100	≥ 1000
O=C(O)c1c(F)ccc2c1OB(O)[C@@H](SC1CNC1)C2 [Compound 46, (R)-3-(azetidin-3-ylthio)-7-fluoro-2-hydroxy-3,4-dihydro-2H-benzo[e][1,2]oxaborinine-8-carboxylic acid]	> 100	> 100	< 100	100 to 1000	Z (Greater than 1 μM)	X (Less than 0.1 μM)	< 100	≥ 1000
COc1ccc2c(c1C(=O)O)OB(O)[C@@H](Sc1nccs1)C2 [Compound 47, (R)-2-hydroxy-7-methoxy-3-(thiazol-2-ylthio)-3,4-dihydro-2H-benzo[e][1,2]oxaborinine-8-carboxylic acid]	> 100	10 to 100	< 100	100 to 1000	Y (0.1 μM to 1 μM)	X (Less than 0.1 μM)	< 100	< 1000
O=C(O)c1c(F)ccc2c1OB(O)[C@@H](Sc1cnns1)C2 [Compound 48, (3R)-7-fluoro-2-hydroxy-3-(thiadiazol-5-ylsulfanyl)-3,4-dihydro-1,2-benzoxaborinine-8-carboxylic acid]	> 100	> 100	< 100	100 to 1000	Z (Greater than 1 μM)	X (Less than 0.1 μM)	< 100	≥ 1000
NC(=O)CS[C@H]1Cc2ccc(F)c(C(=O)O)c2OB1O [Compound 49, (3R)-3-(2-amino-2-oxo-ethyl)sulfanyl-7-fluoro-2-hydroxy-3,4-dihydro-1,2-benzoxaborinine-8-carboxylic acid]	> 100	> 100	< 100	< 100	Y (0.1 μM to 1 μM)	X (Less than 0.1 μM)	< 100	≥ 1000
Nc1nnc(CCS[C@H]2Cc3ccc(F)c(C(=O)O)c3OB2O)s1 [Compound 50, (3R)-3-[2-(5-amino-1,3,4-thiadiazol-2-yl)ethylsulfanyl]-7-fluoro-2-hydroxy-3,4-dihydro-1,2-benzoxaborinine-8-carboxylic acid]	> 100	> 100	< 100	< 100	X (Less than 0.1 μM)	X (Less than 0.1 μM)	< 100	< 1000
N#CCS[C@H]1Cc2ccc(F)c(C(=O)O)c2OB1O [Compound 51, (3R)-3-(cyanomethylsulfanyl)-7-fluoro-2-hydroxy-3,4-dihydro-1,2-benzoxaborinine-8-carboxylic acid]	> 100	> 100	< 100	< 100	Z (Greater than 1 μM)	X (Less than 0.1 μM)	< 100	≥ 1000
